In general, EC90 refers to the concentration at which the effect reaches the 90% level. Broadly, the melting point is the temperature of the solid-liquid transition.

Read-outs that look alike come from different tables or passages of the source.

Data set [1] has as its system HCV replicon RNA-containing Huh7 cells (clone A cells). The experiment in a line: HCV replicon assay. In kind it is cell-based. Particulars: 4 days incubation, replicon RNA by RT-PCR, EC90 = 1-log10 reduction (ΔCt of 3.3), read-out: CloneA EC90. As to the method: HCV replicon RNA-containing Huh7 cells (clone A cells; Apath, LLC, St. Louis, Mo.) were kept at exponential growth in Dulbecco's modified Eagle's medium (high glucose) containing 10% fetal bovine serum, 4 mM L-glutamine and 1 mM sodium pyruvate, 1× nonessential amino acids, and G418 (1,000 μg/ml). Antiviral assays were performed in the same medium without G418. Cells were seeded in a 96-well plate at 1,500 cells per well, and test compounds were added immediately after seeding. Incubation time 4 days. At the end of the incubation step, total cellular RNA was isolated (RNeasy 96 kit; Qiagen). Replicon RNA and an internal control (TaqMan rRNA control reagents; Applied Biosystems) were amplified in a single-step multiplex RT-PCR protocol as recommended by the manufacturer. The HCV primers and probe were designed with Primer Express software (Applied Biosystems) and covered highly conserved 5′-untranslated region (UTR) sequences (sense primer: 5′-AGCCATGGCGTTAGTA(T)GAGTGT-3′ (SEQ ID NO:1); antisense primer: 5′-TTCCGCAGACCΔCTATGG-3′ (SEQ ID NO:2); and probe: 5′-FAM-[…]-TAMRA-3′ (SEQ ID NO:3)).
To express the antiviral effectiveness of a compound, the threshold RT-PCR cycle of the test compound was subtracted from the average threshold RT-PCR cycle of the no-drug control (ΔCtHCV). A ΔCt of 3.3 equals a 1-log 10 reduction (equal to the 90% effective concentration [EC90]) in replicon RNA levels. The cytotoxicity of the test compound could also be expressed by calculating the ΔCTRNA values. The ΔΔCt specificity parameter could then be introduced (ΔCtHCV-ΔCtRNA), in which the levels of HCV RNA are normalized for the rRNA levels and calibrated against the no-drug control.

With `COc1nc(N)nc2c1ncn2[C@@H]1O[C@H](COP(=O)(N[C@@H](C)C(=O)OC(C)C)Oc2ccccc2)[C@@H](O)[C@@]1(C)F` (stereo partly drawn) [Compound 11, (2S)-isopropyl 2-((((2R,3R,4R,5R)-5-(2-amino-6-methoxy-9H-purin-9-yl)-4-fluoro-3-hydroxy-4-methyltetrahydrofuran-2-yl)methoxy) (phenoxy)phosphorylamino)propanoate], the EC90 in data set [1] (Hepatitis C virus, Huh-7, 96 h) turned out to be 20 nM. In the case of `COC(=O)[C@H](C)NP(=O)(OC[C@H]1O[C@@H](n2cnc3c(N4CCC4)nc(N)nc32)[C@](C)(F)[C@@H]1O)Oc1ccccc1` (stereo partly shown) [Compound 12], the concentration for an effect of 90% (EC90) in data set [1] turned out to be 70 nM. `C[C@H](NP(=O)(OC[C@H]1O[C@@H](n2cnc3c(O)nc(N)nc32)[C@](C)(F)[C@@H]1O)Oc1ccccc1)C(=O)OC1CCCC1` (stereo partly drawn) [Compound 14, (2S)-cyclopentyl 2-((((2R,3R,4R,5R)-5-(2-amino-6-hydroxy-9H-purin-9-yl)-4-fluoro-3-hydroxy-4-methyltetrahydrofuran-2-yl)methoxy) (phenoxy)phosphorylamino)propanoate]: the melting point lay within 133 to 150 °C. Further, in data set [1] (Hepatitis C virus, Huh-7, 96 h), the EC90 came to 130 nM.

The values are drawn from patent US8957045B2, “Nucleoside phosphoramidates” (Gilead Pharmasset LLC, priority 2008, dated 2015).
